Measured values: patent US20220088010A1, “Co-Administration of inhibitors to produce insulin producing gut cells” (The Trustees of Columbia University in the City of New York, priority 2019, published 2022)
Entries after “also recorded” stand apart in the source; their conditions may differ.

Tests used:
[1] = test system: intestine enteroendocrine cells; experiment: Initial DBZ i.p. followed by FBT9 via enterojejunal catheter (24 hrs after DBZ); intestine analyzed for enteroendocrine cell content by immunohistochemistry; format: in vivo, mouse; conditions: FBT9 from 24 hrs later
Experimental: The experiment consisted of performing surgery on 8-week-old mice to implant an enterojejujnal catheter to deliver drugs locally to the intestinal mucosa. After a 1-week recovery period, mice were treated with a single i.p. injection of DBZ or vehicle control. Administration of Foxo1 inhibitor compound 9 (Langlet et al. 2017 Cell, see below)
(§1) was initiated either on the same day or on the following day, t.i.d. by injection via enterojejunal catheter for 3 days. At the end of the experiment, mice were sacrificed and the intestine analyzed for enteroendocrine cell content using immunohistochemistry. […] The treatment regime of FIG. 10 involved administering the first dose of FBT9 with DBZ followed by subsequent doses of FBT9.

[2] = test system: intestine enteroendocrine cells of Foxo1 heterozygous knockouts; experiment: Co-treatment: DBZ with first dose of FBT9, then FBT9 3 days TID; intestine immunohistochemistry; format: in vivo, mouse; conditions: DBZ alone or FBT9 x3 days TID alone (FIG. 9)
Experimental: FIG. 8 provides graphs showing the effect of co-treatment of FBT9 and DBZ (DBZ administered in conjunction with first dose of FBT9 followed by sequential administration of FBT9 3 days TID) on body weight and plasma glucose in Foxo1 heterozygous knockouts.
The experiment consisted of performing surgery on 8-week-old mice to implant an enterojejujnal catheter to deliver drugs locally to the intestinal mucosa. After a 1-week recovery period, mice were treated with a single i.p. injection of DBZ or vehicle control.
as §1

[3] = test system: intestine enteroendocrine cells; experiment: Co-administration of FBT10 (enterojejunal catheter) and DBZ (i.p.) in mice; intestine immunohistochemistry; format: in vivo, mouse; conditions: FBT10 t.i.d. 3 days with single i.p. DBZ; FIG. 19
Experimental: The protocol used above in Example 1 was followed for testing a combination of FBT10 and DBZ. The experiment consisted of performing surgery on 8-week-old mice to implant an enterojejujnal catheter to deliver drugs locally to the intestinal mucosa. After a 1-week recovery period, mice were treated with a single i.p. injection of DBZ or vehicle control. Administration of Foxo1 inhibitor compound 10 (FBT10) was initiated either on the same day or on the following day, t.i.d. by injection via enterojejunal catheter for 3 days. At the end of the experiment, mice were sacrificed and the intestine analyzed for enteroendocrine cell content using immunohistochemistry. Regarding the graphs indicating effects on Body weight and blood glucose, each line represents an individual animal. […] No insulin-positive cells were found in vehicle treated duodenum or colon.

[4] = test system: Mouse gut organoid from a wild type mouse; experiment: FBT10 treatment of mouse gut organoid, immunohistochemistry; format: cell-based; conditions: after 72 hrs of treatment; FIG. 18
Experimental: Mouse gut organoid from a wild type mouse was treated with FBT10 (Compound 10, Langlet et al. 2017 Cell, see below).

gut cells of NOD mice = experiment: FBT10 in NOD mice over 96 hr; gut micrographs; format: in vivo, mouse; conditions: 96 hr period, FIG. 20
Experimental: NOD mice (mouse model whose pancreatic beta cells are destroyed by immunological response) were treated with FBT10 or vehicle over a 96 hr period. […] Insulin-positive cells were not detected in the colon. FIG. 20 also provides graphs showing effects on body weight and blood glucose (each graph line represents an individual animal)

[5] = test system: gut cells of Foxo1 knockout mice; experiment: Oral gavage of ROCK inhibitor Y-27632 in Foxo1 knockout mice; intestine immunohistochemistry; format: in vivo, mouse; conditions: for number of insulin-positive cells in Foxo1 knockout mice not treated with ROCKi relative to those treated: Y-27632 oral gavage q.d. 2 days, FIG. 17, dihydrochloride
Text: The experiment consisted of treating 8-week-old mice (Foxo1 knockout mice) by oral gavage dosing of Y-27632, q.d., for 2 days. On day 3, mice were sacrificed and the intestine analyzed for enteroendocrine cell content using immunohistochemistry. The arrows in FIGS. 15 and 16 represent c-peptide and insulin-positive cells, which resemble true beta-like cells.

Gut Ins+ cells = experiment: Insulin secretion by Gut Ins+ cells, block by diazoxide

## C[C@H](NC(=O)Cc1cc(F)cc(F)c1)C(=O)N[C@@H]1C(=O)N(C)c2ccccc2-c2ccccc21 [DBZ]
[1]
  number of Serotonin (5HT)-positive cells: increased
  number of Somatostatin-positive cells: increased
[1]; duodenum and jejunum
  number of Glp1-positive cells: increased
[2]
  ins+ cells after individual treatment: neither which produced ins+ cells

## CN1CCN(c2ccc(C(=O)Nc3cc(-c4nc5ccccc5[nH]4)n[nH]3)cc2)CC1 [FBT10, N-(3-(1H-benzo[d]imidazol-2-yl)-1H-pyrazol-5-yl)-4-(4-methylpiperazin-1-yl)benzamide]
[3]
  insulin-positive cells in duodenum and colon: present in the duodenum and colon
[4]
  insulin and serotonin (5HT) positive cells: some of the cells turned into insulin and serotonin (5HT) positive cells
Gut cells of NOD mice
  insulin-positive cells in the colon: not detected
  insulin-positive cells in the jejunum: generated insulin-positive cells

## COc1ccc(C(=O)Nc2cc(-c3nc4ccccc4[nH]3)n[nH]2)cc1Cl [FBT9, N-(3-(1H-benzo[d]imidazole-2-yl)-1H-pyrazol-5-yl)-3-chloro-4-methoxybenzamide]
[2]
  ins+ cells after individual treatment: neither which produced ins+ cells

## C[C@@H](N)[C@H]1CC[C@H](C(=O)Nc2ccncc2)CC1.Cl.Cl [Y27632, (+)-(R)-trans-4-(1-aminoethyl)-N-(4-pyridyl)cyclohexanecarboxamide dihydrochloride]
[5]; Foxo1 knockout mice treated with ROCKi, FIG. 16
  Epcam counterstain of insulin-positive cells: insulin-positive cells are epithelial
[5]; listed as ROCK inhibitor
  number of insulin-positive cells in Foxo1 knockout mice not treated with ROCKi relative to those treated: decreases dramatically
[5]; listed as ROCKi
  number of insulin-positive cells in Foxo1 knockout mice not treated with ROCKi relative to those treated: significantly lower
[5]; homozygous Foxo1 knockout mice, FIG. 15
  C-peptide staining of Ins+ cells in the gut: positive for C-peptide

## CC1=NS(=O)(=O)c2cc(Cl)ccc2N1 [diazoxide]
Gut Ins+ cells
  insulin secretion / release by Gut Ins+ cells: can be blocked; also recorded: can be shut off
